Where two headings read alike, the source gives them in different places.
Assays:
STC-1 cells [1] = settings: 4 h
Procedure: To assay for CCK release activity, SEQ ID NO: 1 was dissolved in Dulbecco's phosphate buffered saline (D-PBS) at 10 mg/ml. This solution was then diluted to between 0.002 and 4 mg/ml with d-PBS, then added to media of STC-1 cells (passage 25 to 28) in 1:1 ratio of D-PBS and Dulbecco's Modified Eagle's Medium (DMEM-high glucose) and incubated with the cells at 37° C. (99° F.) and a CO2 level of 5% for 4 hours. The solution containing SEQ ID NO: 1 was added to cells at a variety of concentrations ranging from 0.001 to 2 mg/ml to generate a dose-response curve.
Following the incubation period, concentrations of CCK released by STC-1 cells into the media were assayed using a commercially available immunoassay kit for CCK detection from Phoenix Pharmaceuticals, Burlingame, Calif. (catalogue number EK-069-04). Assays were performed according to the manufacturer's instructions using a standard curve covering a range of concentrations from 0.4 to 1000 pg/well. Absorbance was measured at a wavelength of 450 nm.
CCK quantities obtained from each tested concentration of SEQ ID NO: 1 were plotted vs. log concentration of peptide. A dose-response curve was then generated by fitting the data with a logistic function using OriginLab graphing software.
Each variant was assayed for CCK activity at 2 mg/ml using the method described in Example 1.

STC-1 cells [2] = settings: 2 h
Procedure: To assay for GLP-1 release activity, SEQ ID NO: 1 was dissolved in Dulbecco's phosphate buffered saline (D-PBS) at 10 mg/ml. This solution was diluted to between 0.002 and 4 mg/ml with D-PBS, then added to media of STC-1 cells (passage 25 to 28) in 1:1 ratio of D-PBS and Dulbecco's Modified Eagle's Medium (DMEM-high glucose) and incubated with the cells at 37° C. (99° F.) and a CO2 level of 5% for 2 hours. The solution containing SEQ ID NO: 1 was added to cells at a variety of concentrations ranging from 0.001 to 2 mg/ml to generate a dose-response curve.
Following the incubation period, concentrations of GLP-1 released by the STC-1 cells into the media were assayed using a commercially available immunoassay kit for GLP-1 detection from Phoenix Pharmaceuticals, Burlingame, CA (catalogue number EK-028-11). Assays were performed according to the manufacturer's instructions using a standard curve covering a range of concentrations from 0.4 to 1000 pg/well. Absorbance was measured at a wavelength of 450 nm.
GLP-1 quantities obtained from each tested concentration of SEQ ID NO: 1 were plotted vs. log concentration of peptide. A dose-response curve was then generated by fitting the data with a logistic function using OriginLab graphing software.
Each variant was assayed for GLP-1 activity at 2 mg/ml using the method described in Example 2.

EC50 (STC-1 cells [1]): 43 µM
EC50 (STC-1 cells [2]): 186 µM
Substance: H-TSLDFPALSWLRL-OH [SEQ ID NO: 1, NH2-TSLDFPALSWLRL-COOH]

Source: US20160002294A1, “NOVEL POLYPEPTIDES HAVING SATIETY HORMONE RELEASING ACTIVITY” (SOLAE LLC, priority 2013, published 2016)
